Laboratory results published in the supplement of paper PMC4862054.

System: BT-549
Experiment: normalised viability (% of control), CellTiter-Blue; higher = more viable cells (about 100 = DMSO control)
Conditions: 100 nM; incubation time: 72 h
How it was run: (§1)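 384-well plates were pre-loaded with compound in 5 µl medium before 20 µl of breast cancer cell suspension was seeded. Following 72 h incubation, 2.5 µl CellTiter-Blue reagent was added for 2 h at 37 °C. Fluorescence was read at 560/590 nm and plates were normalised to vehicle (100) and a positive kill control (0), checked by Z'-factor. Normalised viability is reported at a single listed concentration of the series.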

Going from `Cn1c(=O)c(F)c(Nc2ccc(I)cc2F)c2c(=O)n(C[C@@H](O)CO)cnc21` [TAK-733] to `CCS(=O)(=O)c1cccc(-c2cc(C(=O)NC3CCN(C)CC3)c(C)c3[nH]c4ncc(C)cc4c23)c1` [TAK-901], the normalised viability falls from 81.8% to 71.2%.

Compared with `CS(=O)(=O)OCCCCOS(C)(=O)=O` [Busulfan], `COc1cccc2c1C(=O)c1c(O)c3c(c(O)c1C2=O)C[C@@](O)(C(C)=O)C[C@@H]3O[C@H]1C[C@H](N)[C@H](O)[C@H](C)O1` [Daunorubicin] is lower in normalised viability: 84% for the first, 59% for the second.

Same assay, conditions: 1000 nM; incubation time: 72 h

First: COc1ncc(-c2ccc3nccc(-c4ccnnc4)c3c2)cc1NS(=O)(=O)c1ccc(F)cc1F
Second: CCS(=O)(=O)c1cccc(-c2cc(C(=O)NC3CCN(C)CC3)c(C)c3[nH]c4ncc(C)cc4c23)c1 [TAK-901]
The normalised viability of the first is lower: 14.7% for the first, 20.1% for the second.

Going from `Cn1c(=O)c(F)c(Nc2ccc(I)cc2F)c2c(=O)n(C[C@@H](O)CO)cnc21` [TAK-733] to `CN1CCN(c2ccc3nc(-c4c(N)c5c(F)cccc5[nH]c4=O)[nH]c3c2)CC1` [Dovitinib], the normalised viability falls from 103% to 97.1%.

First: COC1=CC(c2cc3ccccc3[nH]2)=N/C1=C\c1[nH]c(C)cc1C [Obatoclax]
Second: COc1cccc2c1C(=O)c1c(O)c3c(c(O)c1C2=O)C[C@@](O)(C(C)=O)C[C@@H]3O[C@H]1C[C@H](N)[C@H](O)[C@H](C)O1 [Daunorubicin]
The normalised viability of the first is higher: 30.3% for the first, 11% for the second.

Compound `O=c1[nH]cc(F)c(=O)[nH]1` [Fluorouracil] has a normalised viability of 90.3%.

Same assay, conditions: 10000 nM; incubation time: 72 h

Going from `COC1=CC(c2cc3ccccc3[nH]2)=N/C1=C\c1[nH]c(C)cc1C` [Obatoclax] to `CN1CCN(c2ccc3nc(-c4c(N)c5c(F)cccc5[nH]c4=O)[nH]c3c2)CC1` [Dovitinib], the normalised viability rises from 17.7% to 89%.

Going from `CS(=O)(=O)OCCCCOS(C)(=O)=O` [Busulfan] to `O=c1[nH]cc(F)c(=O)[nH]1` [Fluorouracil], the normalised viability falls from 92.4% to 74.2%.

Same assay, conditions: 100000 nM; incubation time: 72 h

Compound `CS(=O)(=O)OCCCCOS(C)(=O)=O` [Busulfan] has a normalised viability of 68.2%.

System: MDA-MB-453
Experiment: as above
Conditions: 0.3 nM; incubation time: 72 h
How it was run: as §1

First: COc1ncc(-c2ccc3nccc(-c4ccnnc4)c3c2)cc1NS(=O)(=O)c1ccc(F)cc1F
Second: CCS(=O)(=O)c1cccc(-c2cc(C(=O)NC3CCN(C)CC3)c(C)c3[nH]c4ncc(C)cc4c23)c1 [TAK-901]
The normalised viability of the first is higher: 103% for the first, 102% for the second.

First: Cn1c(=O)c(F)c(Nc2ccc(I)cc2F)c2c(=O)n(C[C@@H](O)CO)cnc21 [TAK-733]
Second: COc1cccc2c1C(=O)c1c(O)c3c(c(O)c1C2=O)C[C@@](O)(C(C)=O)C[C@@H]3O[C@H]1C[C@H](N)[C@H](O)[C@H](C)O1 [Daunorubicin]
The normalised viability of the first is higher: 114% for the first, 110% for the second.

Same assay, conditions: 3 nM; incubation time: 72 h

Compared with `COc1ncc(-c2ccc3nccc(-c4ccnnc4)c3c2)cc1NS(=O)(=O)c1ccc(F)cc1F`, `CCS(=O)(=O)c1cccc(-c2cc(C(=O)NC3CCN(C)CC3)c(C)c3[nH]c4ncc(C)cc4c23)c1` [TAK-901] is higher in normalised viability: 67.2% for the first, 111% for the second.

Going from `Cn1c(=O)c(F)c(Nc2ccc(I)cc2F)c2c(=O)n(C[C@@H](O)CO)cnc21` [TAK-733] to `CN1CCN(c2ccc3nc(-c4c(N)c5c(F)cccc5[nH]c4=O)[nH]c3c2)CC1` [Dovitinib], the normalised viability rises from 104% to 114%.

First: COC1=CC(c2cc3ccccc3[nH]2)=N/C1=C\c1[nH]c(C)cc1C [Obatoclax]
Second: COc1cccc2c1C(=O)c1c(O)c3c(c(O)c1C2=O)C[C@@](O)(C(C)=O)C[C@@H]3O[C@H]1C[C@H](N)[C@H](O)[C@H](C)O1 [Daunorubicin]
The normalised viability of the first is lower: 101% for the first, 114% for the second.

With `O=c1[nH]cc(F)c(=O)[nH]1` [Fluorouracil] the normalised viability was 113%.

Same assay, conditions: 10 nM; incubation time: 72 h

First: COc1ncc(-c2ccc3nccc(-c4ccnnc4)c3c2)cc1NS(=O)(=O)c1ccc(F)cc1F
Second: CCS(=O)(=O)c1cccc(-c2cc(C(=O)NC3CCN(C)CC3)c(C)c3[nH]c4ncc(C)cc4c23)c1 [TAK-901]
The normalised viability of the first is lower: 36.7% for the first, 83.5% for the second.

Compared with `Cn1c(=O)c(F)c(Nc2ccc(I)cc2F)c2c(=O)n(C[C@@H](O)CO)cnc21` [TAK-733], `COc1cccc2c1C(=O)c1c(O)c3c(c(O)c1C2=O)C[C@@](O)(C(C)=O)C[C@@H]3O[C@H]1C[C@H](N)[C@H](O)[C@H](C)O1` [Daunorubicin] is lower in normalised viability: 115% for the first, 97% for the second.

Same assay, conditions: 30 nM; incubation time: 72 h

First: COC1=CC(c2cc3ccccc3[nH]2)=N/C1=C\c1[nH]c(C)cc1C [Obatoclax]
Second: CN1CCN(c2ccc3nc(-c4c(N)c5c(F)cccc5[nH]c4=O)[nH]c3c2)CC1 [Dovitinib]
The normalised viability of the first is lower: 77.9% for the first, 82.3% for the second.

First: CS(=O)(=O)OCCCCOS(C)(=O)=O [Busulfan]
Second: O=c1[nH]cc(F)c(=O)[nH]1 [Fluorouracil]
The normalised viability of the first is lower: 95.9% for the first, 106% for the second.

Same assay, conditions: 100 nM; incubation time: 72 h

Compared with `COC1=CC(c2cc3ccccc3[nH]2)=N/C1=C\c1[nH]c(C)cc1C` [Obatoclax], `CN1CCN(c2ccc3nc(-c4c(N)c5c(F)cccc5[nH]c4=O)[nH]c3c2)CC1` [Dovitinib] is higher in normalised viability: 74.3% for the first, 84% for the second.

`O=c1[nH]cc(F)c(=O)[nH]1` [Fluorouracil] gave a normalised viability of 99.1%.

Same assay, conditions: 300 nM; incubation time: 72 h

Work on `CS(=O)(=O)OCCCCOS(C)(=O)=O` [Busulfan] yielded a normalised viability of 101%.

Same assay, conditions: 1000 nM; incubation time: 72 h

Compound `CS(=O)(=O)OCCCCOS(C)(=O)=O` [Busulfan] has a normalised viability of 104%.

System: HDQ-P1
Experiment: as above
Conditions: 0.3 nM; incubation time: 72 h
How it was run: as §1

Compared with `COc1ncc(-c2ccc3nccc(-c4ccnnc4)c3c2)cc1NS(=O)(=O)c1ccc(F)cc1F`, `CCS(=O)(=O)c1cccc(-c2cc(C(=O)NC3CCN(C)CC3)c(C)c3[nH]c4ncc(C)cc4c23)c1` [TAK-901] is higher in normalised viability: 95.3% for the first, 111% for the second.

First: Cn1c(=O)c(F)c(Nc2ccc(I)cc2F)c2c(=O)n(C[C@@H](O)CO)cnc21 [TAK-733]
Second: COc1cccc2c1C(=O)c1c(O)c3c(c(O)c1C2=O)C[C@@](O)(C(C)=O)C[C@@H]3O[C@H]1C[C@H](N)[C@H](O)[C@H](C)O1 [Daunorubicin]
The normalised viability of the first is lower: 113% for the first, 133% for the second.

Same assay, conditions: 3 nM; incubation time: 72 h

Compared with `COc1ncc(-c2ccc3nccc(-c4ccnnc4)c3c2)cc1NS(=O)(=O)c1ccc(F)cc1F`, `CCS(=O)(=O)c1cccc(-c2cc(C(=O)NC3CCN(C)CC3)c(C)c3[nH]c4ncc(C)cc4c23)c1` [TAK-901] is higher in normalised viability: 70.5% for the first, 109% for the second.

First: Cn1c(=O)c(F)c(Nc2ccc(I)cc2F)c2c(=O)n(C[C@@H](O)CO)cnc21 [TAK-733]
Second: CN1CCN(c2ccc3nc(-c4c(N)c5c(F)cccc5[nH]c4=O)[nH]c3c2)CC1 [Dovitinib]
The normalised viability of the first is higher: 118% for the first, 91% for the second.

First: COC1=CC(c2cc3ccccc3[nH]2)=N/C1=C\c1[nH]c(C)cc1C [Obatoclax]
Second: COc1cccc2c1C(=O)c1c(O)c3c(c(O)c1C2=O)C[C@@](O)(C(C)=O)C[C@@H]3O[C@H]1C[C@H](N)[C@H](O)[C@H](C)O1 [Daunorubicin]
The normalised viability of the first is lower: 85.3% for the first, 94.5% for the second.

`O=c1[nH]cc(F)c(=O)[nH]1` [Fluorouracil] was tested, and the normalised viability was 105%.

Same assay, conditions: 10 nM; incubation time: 72 h

First: COc1ncc(-c2ccc3nccc(-c4ccnnc4)c3c2)cc1NS(=O)(=O)c1ccc(F)cc1F
Second: CCS(=O)(=O)c1cccc(-c2cc(C(=O)NC3CCN(C)CC3)c(C)c3[nH]c4ncc(C)cc4c23)c1 [TAK-901]
The normalised viability of the first is lower: 51.8% for the first, 113% for the second.

First: Cn1c(=O)c(F)c(Nc2ccc(I)cc2F)c2c(=O)n(C[C@@H](O)CO)cnc21 [TAK-733]
Second: COc1cccc2c1C(=O)c1c(O)c3c(c(O)c1C2=O)C[C@@](O)(C(C)=O)C[C@@H]3O[C@H]1C[C@H](N)[C@H](O)[C@H](C)O1 [Daunorubicin]
The normalised viability of the first is lower: 91.6% for the first, 97.3% for the second.

Same assay, conditions: 30 nM; incubation time: 72 h

For `COC1=CC(c2cc3ccccc3[nH]2)=N/C1=C\c1[nH]c(C)cc1C` [Obatoclax], the normalised viability was 94.9%.
